Measurements as given in ChEMBL document CHEMBL4507326, “Data for DCP probe TP-030-2” (2021).

Experiments:
[1] = target: D(3) dopamine receptor (Homo sapiens) (UniProt P35462); details: Compound concentration 10.0 uM
[2] = target: Serine/threonine-protein kinase 33 (Homo sapiens, UniProt Q9BYT3); experiment: STK33(ST33LGF1) Takeda global kinase panel
[3] = target: 5-hydroxytryptamine receptor 2A (Homo sapiens, UniProt P28223); details: Compound concentration 10.0 uM
Oryctolagus cuniculus = species: Oryctolagus cuniculus; details: Compound concentration 10.0 uM
[4] = target: Alpha-2C adrenergic receptor (Homo sapiens) (UniProt P18825); details: Compound concentration 10.0 uM
[5] = target: Tyrosine-protein kinase BTK (Homo sapiens, UniProt Q06187); experiment: BTK(BTK1CGF1) Takeda global kinase panel
[6] = target: Kappa-type opioid receptor (Homo sapiens) (UniProt P41145); details: Compound concentration 10.0 uM
[7] = target: Prostaglandin E2 receptor EP4 subtype (Homo sapiens) (UniProt P35408); experiment: Inhibition of Prostanoid EP4 at 10 µM in the Eurofins-Panlabs radioligand binding assay (Eurofins_assay_268420); set-up: ligand concentration 1 nM; details: Compound concentration 10.0 uM
[8] = target: Serine/threonine-protein kinase 24 (Homo sapiens, UniProt Q9Y6E0); experiment: MST3(ST24LGC1) Takeda global kinase panel
[9] = target: Protein kinase C theta type (Homo sapiens, UniProt Q04759); experiment: PKCtheta(PRKQLGM5) Takeda global kinase panel
[10] = target: Serine/threonine-protein kinase MARK1 (Homo sapiens, UniProt Q9P0L2); experiment: MARK1(MAR1PHY1) Takeda global kinase panel
TGF-beta receptor type-2 = TGF-beta receptor type-2 (Homo sapiens, UniProt P37173); experiment: TGFbetaR2(TGF2LGY1) Takeda global kinase panel
[11] = target: Serine/threonine-protein kinase SBK1 (Homo sapiens, UniProt Q52WX2); experiment: SBK(SBK1LGY1) Takeda global kinase panel
[12] = target: MAP kinase-activated protein kinase 5 (Homo sapiens, UniProt Q8IW41); experiment: MAPKAPK5(MPK5LGN1) Takeda global kinase panel
[13] = target: Alpha-2A adrenergic receptor (Homo sapiens) (UniProt P08913); details: Compound concentration 10.0 uM
[14] = target: Mu-type opioid receptor (Homo sapiens) (UniProt P35372); details: Compound concentration 10.0 uM
[15] = target: Casein kinase I isoform alpha (Homo sapiens, UniProt P48729); experiment: CK1alpha(C1A1PHY1) Takeda global kinase panel
[16] = target: Tyrosine-protein kinase HCK (Homo sapiens, UniProt P08631); experiment: HCK(HCK1LGF1) Takeda global kinase panel
[17] = target: BMP-2-inducible protein kinase (Homo sapiens, UniProt Q9NSY1); experiment: BIKE(BM2KLGY1) Takeda global kinase panel
[18] = target: Mast/stem cell growth factor receptor Kit (Homo sapiens, UniProt P10721); experiment: Kit(KIT1MGC1) Takeda global kinase panel
[19] = target: Casein kinase II subunit alpha' (Homo sapiens, UniProt P19784); experiment: CK2alpha2(C2A2LGK1) Takeda global kinase panel
[20] = target: Insulin-like growth factor 1 receptor (Homo sapiens, UniProt P08069); experiment: IGF1R(IGF1LGF1) Takeda global kinase panel
[21] = target: Delta-type opioid receptor (Homo sapiens) (UniProt P41143); details: Compound concentration 10.0 uM
[22] = target: Cannabinoid receptor 1 (Homo sapiens) (UniProt P21554); experiment: Inhibition of Cannabinoid CB1 at compound concentration of 10.0 uM in the Eurofins-Panlabs radioligand binding assay (Eurofins_assay_217050); set-up: ligand concentration 2 nM; details: Compound concentration 10.0 uM
[23] = target: 5'-AMP-activated protein kinase catalytic subunit alpha-2 (Homo sapiens, UniProt P54646); experiment: AMPKalpha2(PRA2LGY1) Takeda global kinase panel
[24] = target: Sodium-dependent serotonin transporter (Homo sapiens) (UniProt P31645); details: Compound concentration 10.0 uM
[25] = target: Glucocorticoid receptor (Homo sapiens) (UniProt P04150); details: Compound concentration 10.0 uM
[26] = target: Bone morphogenetic protein receptor type-1B (Homo sapiens, UniProt O00238); experiment: BMPR1B(BM1BLGF1) Takeda global kinase panel
[27] = target: Leukocyte tyrosine kinase receptor (Homo sapiens, UniProt P29376); experiment: LTK(LTK1LGF1) Takeda global kinase panel
eIF-2-alpha kinase GCN2 = eIF-2-alpha kinase GCN2 (Homo sapiens, UniProt Q9P2K8); experiment: GCN2(EIK4PHK1) Takeda global kinase panel
[28] = target: Dual specificity tyrosine-phosphorylation-regulated kinase 2 (Homo sapiens, UniProt Q92630); experiment: DYRK2(DYR2LGY1) Takeda global kinase panel
[29] = target: Cyclin-dependent kinase 2 (Homo sapiens, UniProt P24941); experiment: CDK2(CDK2CGS1) Takeda global kinase panel
[30] = target: Tyrosine-protein kinase Tec (Homo sapiens, UniProt P42680); experiment: TEC(TEC1CGD1) Takeda global kinase panel
[31] = target: Serine/threonine-protein kinase N2 (Homo sapiens, UniProt Q16513); experiment: PKN2 [PRK2(PKN2LGG5)] Takeda global kinase panel
[32] = target: Muscle, skeletal receptor tyrosine-protein kinase (Homo sapiens, UniProt O15146); experiment: MUSK(MUSKLGY1) Takeda global kinase panel
[33] = target: Insulin receptor-related protein (Homo sapiens, UniProt P14616); experiment: IRR(INSSLGF1) Takeda global kinase panel
[34] = target: Macrophage colony-stimulating factor 1 receptor (Homo sapiens, UniProt P07333); experiment: FmS [CSFR(CSF1LGC1)] Takeda global kinase panel
[35] = target: Epidermal growth factor receptor (Homo sapiens, UniProt P00533); experiment: Inhibition of Epidermal Growth Factor (EGF) at 10 µM in the Eurofins-Panlabs radioligand binding assay (Eurofins_assay_225510); details: Compound concentration 10.0 uM
[36] = target: Alpha-1D adrenergic receptor (Homo sapiens) (UniProt P25100); experiment: Inhibition of Adrenergic alpha1D at 10 µM in the Eurofins-Panlabs radioligand binding assay (Eurofins_assay_203400); details: Compound concentration 10.0 uM
[37] = target: Estrogen receptor (Homo sapiens) (UniProt P03372); details: Compound concentration 10.0 uM
[38] = target: Serine/threonine-protein kinase PINK1, mitochondrial (Homo sapiens, UniProt Q9BXM7); experiment: PINK1(PIN1PHRE) Takeda global kinase panel
[39] = target: Ribosomal protein S6 kinase alpha-2 (Homo sapiens, UniProt Q15349); experiment: RSK3(R6A1CGE1) Takeda global kinase panel
[40] = target: Microtubule-associated serine/threonine-protein kinase 3 (Homo sapiens, UniProt O60307); experiment: MAST3(MAS3LGE1) Takeda global kinase panel
[41] = target: Tyrosine-protein kinase ABL1 (Homo sapiens, UniProt P00519); experiment: Abl(ABL1IHY1) Takeda global kinase panel
[42] = target: Tyrosine-protein kinase JAK3 (Homo sapiens, UniProt P52333); experiment: JAK3(JAK3LGRG) Takeda global kinase panel

Estrogen receptor (Homo sapiens), sequence (P03372 whole entry): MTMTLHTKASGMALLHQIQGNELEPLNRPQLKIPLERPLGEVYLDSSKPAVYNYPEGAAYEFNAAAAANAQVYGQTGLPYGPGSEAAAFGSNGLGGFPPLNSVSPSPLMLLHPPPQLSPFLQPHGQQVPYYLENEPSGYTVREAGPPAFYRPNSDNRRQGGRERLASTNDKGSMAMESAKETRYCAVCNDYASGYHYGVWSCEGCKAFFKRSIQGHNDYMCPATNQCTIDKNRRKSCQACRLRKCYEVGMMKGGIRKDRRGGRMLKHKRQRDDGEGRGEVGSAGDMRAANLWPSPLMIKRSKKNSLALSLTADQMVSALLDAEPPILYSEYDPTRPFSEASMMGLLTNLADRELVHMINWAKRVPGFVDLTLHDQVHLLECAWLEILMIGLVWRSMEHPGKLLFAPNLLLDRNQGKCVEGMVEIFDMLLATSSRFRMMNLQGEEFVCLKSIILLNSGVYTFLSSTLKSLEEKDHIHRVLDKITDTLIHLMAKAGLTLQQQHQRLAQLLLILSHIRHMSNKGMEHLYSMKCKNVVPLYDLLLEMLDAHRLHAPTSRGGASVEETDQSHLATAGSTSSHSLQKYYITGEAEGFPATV
5'-AMP-activated protein kinase catalytic subunit alpha-2, sequence (P54646 whole entry): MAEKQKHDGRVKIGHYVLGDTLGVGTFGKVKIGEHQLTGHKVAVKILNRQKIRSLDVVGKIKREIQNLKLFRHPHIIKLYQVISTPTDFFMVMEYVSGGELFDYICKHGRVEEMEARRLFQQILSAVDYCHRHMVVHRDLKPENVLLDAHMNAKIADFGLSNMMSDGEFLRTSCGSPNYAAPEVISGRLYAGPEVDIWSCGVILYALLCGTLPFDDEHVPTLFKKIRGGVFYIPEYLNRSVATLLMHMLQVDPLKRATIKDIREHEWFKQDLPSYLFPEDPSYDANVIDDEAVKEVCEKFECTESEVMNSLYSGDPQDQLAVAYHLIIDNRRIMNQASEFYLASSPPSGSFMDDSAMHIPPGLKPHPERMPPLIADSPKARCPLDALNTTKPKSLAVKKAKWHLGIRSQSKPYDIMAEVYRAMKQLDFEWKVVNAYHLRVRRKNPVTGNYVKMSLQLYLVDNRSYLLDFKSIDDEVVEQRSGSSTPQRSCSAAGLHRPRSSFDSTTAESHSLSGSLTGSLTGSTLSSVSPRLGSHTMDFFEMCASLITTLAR
Serine/threonine-protein kinase N2, sequence (Q16513 whole entry): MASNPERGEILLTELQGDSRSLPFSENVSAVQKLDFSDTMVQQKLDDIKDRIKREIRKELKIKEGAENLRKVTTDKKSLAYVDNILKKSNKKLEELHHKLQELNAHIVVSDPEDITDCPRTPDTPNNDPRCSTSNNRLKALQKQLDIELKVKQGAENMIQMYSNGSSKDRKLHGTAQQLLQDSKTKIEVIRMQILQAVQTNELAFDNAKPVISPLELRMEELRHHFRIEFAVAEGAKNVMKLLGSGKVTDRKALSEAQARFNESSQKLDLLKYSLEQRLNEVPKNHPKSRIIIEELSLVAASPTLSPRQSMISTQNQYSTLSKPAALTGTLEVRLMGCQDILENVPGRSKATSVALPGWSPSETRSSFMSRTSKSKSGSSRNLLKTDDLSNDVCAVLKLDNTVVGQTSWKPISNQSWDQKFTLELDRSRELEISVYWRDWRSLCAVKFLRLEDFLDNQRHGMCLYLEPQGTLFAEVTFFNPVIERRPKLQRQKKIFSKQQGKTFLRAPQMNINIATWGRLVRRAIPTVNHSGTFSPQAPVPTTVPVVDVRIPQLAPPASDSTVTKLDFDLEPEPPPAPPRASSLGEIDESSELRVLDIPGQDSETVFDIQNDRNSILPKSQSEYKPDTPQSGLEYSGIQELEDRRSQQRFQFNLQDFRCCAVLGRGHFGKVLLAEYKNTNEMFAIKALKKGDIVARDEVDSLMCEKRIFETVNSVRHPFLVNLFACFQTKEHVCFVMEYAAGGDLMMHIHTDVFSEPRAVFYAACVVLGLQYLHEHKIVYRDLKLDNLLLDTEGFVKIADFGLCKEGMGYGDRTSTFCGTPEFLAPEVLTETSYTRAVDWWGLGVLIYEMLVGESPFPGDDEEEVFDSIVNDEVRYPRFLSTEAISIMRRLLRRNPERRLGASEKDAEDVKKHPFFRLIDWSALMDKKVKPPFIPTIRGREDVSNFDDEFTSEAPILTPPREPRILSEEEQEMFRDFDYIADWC
Dual specificity tyrosine-phosphorylation-regulated kinase 2, sequence (Q92630 whole entry): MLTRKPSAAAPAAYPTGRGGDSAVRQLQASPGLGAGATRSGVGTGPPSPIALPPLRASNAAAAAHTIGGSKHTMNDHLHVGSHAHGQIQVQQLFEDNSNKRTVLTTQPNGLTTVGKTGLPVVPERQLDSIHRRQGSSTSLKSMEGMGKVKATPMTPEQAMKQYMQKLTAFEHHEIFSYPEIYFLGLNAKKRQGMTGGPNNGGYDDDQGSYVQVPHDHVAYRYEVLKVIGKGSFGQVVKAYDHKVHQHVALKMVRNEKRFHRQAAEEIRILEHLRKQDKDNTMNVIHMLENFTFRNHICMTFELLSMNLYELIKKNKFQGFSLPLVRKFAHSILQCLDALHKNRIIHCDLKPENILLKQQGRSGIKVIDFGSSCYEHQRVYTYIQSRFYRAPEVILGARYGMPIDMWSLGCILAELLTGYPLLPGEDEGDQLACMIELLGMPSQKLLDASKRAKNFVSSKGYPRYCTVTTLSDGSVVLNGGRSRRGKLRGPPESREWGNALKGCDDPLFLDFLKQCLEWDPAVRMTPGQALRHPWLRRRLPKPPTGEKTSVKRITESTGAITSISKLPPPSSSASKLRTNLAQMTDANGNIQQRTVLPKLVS
Tyrosine-protein kinase Tec, sequence (P42680 whole entry): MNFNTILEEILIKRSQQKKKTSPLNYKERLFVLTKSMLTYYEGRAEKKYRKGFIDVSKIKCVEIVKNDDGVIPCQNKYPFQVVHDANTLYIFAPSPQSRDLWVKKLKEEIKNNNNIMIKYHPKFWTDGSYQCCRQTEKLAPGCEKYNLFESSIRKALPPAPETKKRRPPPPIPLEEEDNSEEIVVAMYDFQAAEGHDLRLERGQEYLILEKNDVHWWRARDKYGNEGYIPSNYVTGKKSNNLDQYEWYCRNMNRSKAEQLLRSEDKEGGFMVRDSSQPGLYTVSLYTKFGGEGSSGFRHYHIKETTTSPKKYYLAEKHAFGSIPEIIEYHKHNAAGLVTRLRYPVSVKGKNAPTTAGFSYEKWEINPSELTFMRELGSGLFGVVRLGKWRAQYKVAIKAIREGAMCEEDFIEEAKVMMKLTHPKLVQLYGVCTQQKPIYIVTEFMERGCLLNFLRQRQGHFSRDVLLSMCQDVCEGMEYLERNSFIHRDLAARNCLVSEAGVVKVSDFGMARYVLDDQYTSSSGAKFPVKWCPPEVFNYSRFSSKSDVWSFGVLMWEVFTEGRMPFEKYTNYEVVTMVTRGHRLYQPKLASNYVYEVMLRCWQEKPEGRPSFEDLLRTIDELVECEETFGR
Ribosomal protein S6 kinase alpha-2, sequence (Q15349 whole entry): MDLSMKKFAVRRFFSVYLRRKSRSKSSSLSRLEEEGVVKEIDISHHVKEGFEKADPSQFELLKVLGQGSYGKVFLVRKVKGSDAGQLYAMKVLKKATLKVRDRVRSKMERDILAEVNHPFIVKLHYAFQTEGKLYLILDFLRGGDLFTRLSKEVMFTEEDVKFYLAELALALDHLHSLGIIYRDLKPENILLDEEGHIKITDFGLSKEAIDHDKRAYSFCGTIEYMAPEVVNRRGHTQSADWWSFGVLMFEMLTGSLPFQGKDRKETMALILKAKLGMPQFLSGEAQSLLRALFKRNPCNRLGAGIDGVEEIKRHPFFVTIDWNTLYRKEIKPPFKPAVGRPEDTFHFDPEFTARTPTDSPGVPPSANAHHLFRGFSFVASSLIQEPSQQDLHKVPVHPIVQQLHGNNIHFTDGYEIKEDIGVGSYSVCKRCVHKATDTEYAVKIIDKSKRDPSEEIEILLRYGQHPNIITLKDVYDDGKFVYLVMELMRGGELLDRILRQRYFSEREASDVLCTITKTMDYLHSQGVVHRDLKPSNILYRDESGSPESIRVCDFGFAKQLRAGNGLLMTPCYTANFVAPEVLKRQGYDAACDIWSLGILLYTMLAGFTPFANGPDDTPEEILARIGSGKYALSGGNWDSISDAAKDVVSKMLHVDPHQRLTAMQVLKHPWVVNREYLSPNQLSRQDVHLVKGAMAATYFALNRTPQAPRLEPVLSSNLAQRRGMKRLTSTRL
Protein kinase C theta type, sequence (Q04759 whole entry): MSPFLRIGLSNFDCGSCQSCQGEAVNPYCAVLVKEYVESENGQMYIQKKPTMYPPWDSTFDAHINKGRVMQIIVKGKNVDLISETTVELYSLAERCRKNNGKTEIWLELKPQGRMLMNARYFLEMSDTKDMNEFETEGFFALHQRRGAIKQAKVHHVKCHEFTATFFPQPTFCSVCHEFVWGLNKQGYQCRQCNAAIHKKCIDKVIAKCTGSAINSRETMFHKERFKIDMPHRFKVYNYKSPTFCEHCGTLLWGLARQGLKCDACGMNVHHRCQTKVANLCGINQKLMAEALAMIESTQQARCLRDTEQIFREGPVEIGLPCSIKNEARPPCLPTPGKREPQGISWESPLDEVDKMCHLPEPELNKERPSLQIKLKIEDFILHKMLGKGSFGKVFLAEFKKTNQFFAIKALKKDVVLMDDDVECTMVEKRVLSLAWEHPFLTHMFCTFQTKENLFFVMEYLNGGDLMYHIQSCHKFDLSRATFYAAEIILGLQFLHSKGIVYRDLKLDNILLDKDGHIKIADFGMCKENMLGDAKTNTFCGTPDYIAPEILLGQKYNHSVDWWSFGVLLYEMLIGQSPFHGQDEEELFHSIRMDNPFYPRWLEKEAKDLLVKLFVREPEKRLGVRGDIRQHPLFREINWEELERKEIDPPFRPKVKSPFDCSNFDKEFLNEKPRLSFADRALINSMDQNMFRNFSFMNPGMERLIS

SMILES: CN1C(=O)[C@@H](N2CCc3c(nn(Cc4ccccc4)c3Br)C2=O)COc2ccccc21 [TP-030-2]
- inhibition [1]: 3.31%
- IC50 [2]: 1 µM
- inhibition [3]: 50.6%
- inhibition (Oryctolagus cuniculus): -4%
- inhibition [4]: 71.3%
- IC50 [5]: 1 µM
- inhibition [6]: 16.5%
- inhibition [7]: -2%
- IC50 [8]: 1 µM
- IC50 [9]: 1 µM
- IC50 [10]: 1 µM
- IC50 (TGF-beta receptor type-2): 1 µM
- IC50 [11]: 1 µM
- IC50 [12]: 1 µM
- inhibition [13]: 68%
- inhibition [14]: 27%
- IC50 [15]: 1 µM
- IC50 [16]: 1 µM
- IC50 [17]: 1 µM
- IC50 [18]: 1 µM
- IC50 [19]: 1 µM
- IC50 [20]: 1 µM
- inhibition [21]: 30.1%
- inhibition [22]: 40%
- IC50 [23]: 1 µM
- inhibition [24]: 5%
- inhibition [25]: 10%
- IC50 [26]: 1 µM
- IC50 [27]: 1 µM
- IC50 (eIF-2-alpha kinase GCN2): 1 µM
- IC50 [28]: 1 µM
- IC50 [29]: 1 µM
- IC50 [30]: 1 µM
- IC50 [31]: 1 µM
- IC50 [32]: 1 µM
- IC50 [33]: 1 µM
- IC50 [34]: 1 µM
- inhibition [35]: 2%
- inhibition [36]: -2%
- inhibition [37]: 10%
- IC50 [38]: 1 µM
- IC50 [39]: 1 µM
- IC50 [40]: 1 µM
- IC50 [41]: 1 µM
- IC50 [42]: 1 µM
